Assays:
[1] = target: T1, Rhodamine-labeled PNA (galactose-specific lectin) (Arachis hypogaea, UniProt P02872); test: Control: glycan arrays exposed to Rhodamine-labeled PNA, fluorescence; assay type: binding; details: PNA 1.5×10^−5 M, 5 h, washed with phosphate buffer/Tween 20
T1 sequence (P02872 24-273): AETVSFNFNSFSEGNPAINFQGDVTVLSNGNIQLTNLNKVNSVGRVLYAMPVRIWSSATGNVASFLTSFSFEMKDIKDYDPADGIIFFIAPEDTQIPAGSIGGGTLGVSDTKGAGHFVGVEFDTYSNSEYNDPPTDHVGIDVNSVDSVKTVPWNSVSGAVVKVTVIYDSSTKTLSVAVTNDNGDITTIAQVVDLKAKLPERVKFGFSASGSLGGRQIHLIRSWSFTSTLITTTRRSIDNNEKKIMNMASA
Description: Control Experiments. […] This experiment supports the conclusion that fluorescence in the Cy3-labelled ConA exposed arrays of compound 3 and compound 4 arise from ConA-glucose binding (FIG. 27).

[2] = target: Concanavalin A (ConA) (Canavalia ensiformis, UniProt P02866)
Description: Fluorescence intensity profiles of the array were obtained from a Nikon Eclipse Ti fluorescence microscope (λex=532-587 nm, λobs=608-683 nm), and extracted by NIS-elements software (Nikon Instruments, Inc.). Exposure times ranged from 1-4 s, depending on the brightness of the arrays. To compare data taken with different exposure times, the normalized fluorescence was obtained by dividing the maximum fluorescence by the background fluorescence. It is possible that the ratio of signal-to-background can vary with exposure time, so to test the effect of exposure time on the normalized fluorescence of features on the microarray, fluorescence images of a surface patterned with compound 4 and bound to Cy3-modified ConA were taken at different exposure time.
Preparation of Carbohydrate arrays by PPL-induced Thiol-ene and Thiol-acrylate reaction. To prepare the pen arrays for inking, they were exposed to O2 plasma (Harrick PDC-001, 30 s, medium power) to render the surfaces of the pen-arrays hydrophilic. […]
Arrays of compound 3 and compound 4 were prepared by the thiol-methacrylate and thiol-ene reactions, respectively, as well as α-mannosides immobilized by the thiol-ene and Cuaac reaction. Binding of Concanavalin A (ConA) to these arrays was measured by fluorescence microscopy to determine how the mutivalency of the resulting glycans affects binding. […]

## α-glucomethacrylate [compound 3]
[1]
  fluorescence after exposure to Rhodamine-labeled PNA: no fluorescence was observed
[1]; listed as Compound 3
  fluorescence after exposure to Rhodamine-labeled PNA: no visible fluorescence was observed
[2]; ConA concentration varied systematically, thiol-acrylate brush polymer arrays
  lowest ConA concentration detected by the array: 0.2 µM
[2]; Cy3-labelled ConA 0.5 mg/mL, 4 h at 4° C., maximum fluorescence divided by background fluorescence
  normalized fluorescence of array after ConA binding: 7.1±0.2

— patent US20150111764A1, “POLYMERIZED MICROARRAYS” (New York University, priority 2013, published 2015)
